Common to all, as to assay type: functional
Holding throughout (conditions): time 18-24 hrs

In test [1] the test system is Staphylococcus epidermidis. In words: Antibacterial activity against Staphylococcus epidermidis ATCC 12228 assessed as reduction in bacterial growth incubated for 18 to 24 hrs by broth microdilution method. Background: In broth dilution the organism is exposed to a series of concentrations in liquid medium.
In the next test the test system is Escherichia coli. Put plainly: Antibacterial activity against Escherichia coli ATCC 25922 assessed as reduction in bacterial growth incubated for 18 to 24 hrs by broth microdilution method.
In another test the test system is Pseudomonas aeruginosa. In words: Antibacterial activity against Pseudomonas aeruginosa ATCC 27853 assessed as reduction in bacterial growth incubated for 18 to 24 hrs by broth microdilution method.
Another test deals with Staphylococcus aureus. In words: Antibacterial activity against Staphylococcus aureus ATCC 25923 assessed as reduction in bacterial growth incubated for 18 to 24 hrs by broth microdilution method.
The subject of the next test is Acinetobacter baumannii. Put plainly: Antibacterial activity against Acinetobacter baumannii ATCC 19606 assessed as reduction in bacterial growth incubated for 18 to 24 hrs by broth microdilution method.
The test system of a further test is Klebsiella pneumoniae. In words: Antibacterial activity against Klebsiella pneumoniae ATCC 700603 assessed as reduction in bacterial growth incubated for 18 to 24 hrs by broth microdilution method.
For another test, the system named is Bacillus subtilis. Put plainly: Antibacterial activity against Bacillus subtilis ATCC 23857 assessed as reduction in bacterial growth incubated for 18 to 24 hrs by broth microdilution method.
The subject of the next test is Enterococcus faecalis. In words: Antibacterial activity against Enterococcus faecalis ATCC 29212 assessed as reduction in bacterial growth incubated for 18 to 24 hrs by broth microdilution method.

Converted amounts (≈) assume the structure as drawn. Peptide text beside a SMILES is read from it. * marks the point of attachment. Lauroyl = CCCCCCCCCCCC(=O)*; Decanoyl = CCCCCCCCCC(=O)*; Hexanoyl = CCCCCC(=O)*; Butyryl = CCCC(=O)*

In the case of `CCCC(=O)NCCCC[C@H](NC(=O)CCC)C(=O)N[C@@H](CCCCN)C(=O)N[C@@H](CCCCN)C(=O)N[C@@H](Cc1c[nH]c2ccccc12)C(=O)N[C@@H](Cc1c[nH]c2ccccc12)C(N)=O` (Butyryl-K(Butyryl)KKWW-NH2), the MIC (in test [1]; with Escherichia coli; with Pseudomonas aeruginosa; in the test on Staphylococcus aureus; with Acinetobacter baumannii; in the test with Klebsiella pneumoniae) was 128 µM (≈ 117 µg/mL) each time. The MIC in the test on Bacillus subtilis and in the test with Enterococcus faecalis was 128 µM (≈ 117 µg/mL) throughout.

On to `CCCC(=O)N[C@@H](CCCCN)C(=O)N[C@@H](CCCCN)C(=O)N[C@@H](Cc1c[nH]c2ccccc12)C(=O)N[C@@H](Cc1c[nH]c2ccccc12)C(N)=O` (Butyryl-KKWW-NH2), for which the MIC (in test [1]; with Escherichia coli; in the test with Pseudomonas aeruginosa; in the test with Staphylococcus aureus; with Acinetobacter baumannii; in the test on Klebsiella pneumoniae) was 128 µM (≈ 91.6 µg/mL) each time. For the same compound, the MIC in the test on Bacillus subtilis and with Enterococcus faecalis was 128 µM (≈ 91.6 µg/mL) each time.

As to `CCCCCCCCCC(=O)NCCCC[C@H](NC(=O)CCCCCCCCC)C(=O)N[C@@H](CCCCN)C(=O)N[C@@H](CCCCN)C(=O)N[C@@H](Cc1c[nH]c2ccccc12)C(=O)N[C@@H](Cc1c[nH]c2ccccc12)C(N)=O` (Decanoyl-K(Decanoyl)KKWW-NH2), the MIC – broadly, the lowest concentration that inhibits growth of the organism – is 8 µM (≈ 8.66 µg/mL) in test [1]; 16 µM (≈ 17.3 µg/mL) with Escherichia coli; 16 µM (≈ 17.3 µg/mL) in the test with Pseudomonas aeruginosa; 16 µM (≈ 17.3 µg/mL) in the test with Staphylococcus aureus; 16 µM (≈ 17.3 µg/mL) in the test on Acinetobacter baumannii; 128 µM (≈ 139 µg/mL) in the test with Klebsiella pneumoniae. The MIC in the test with Bacillus subtilis is 8 µM (≈ 8.66 µg/mL); in the test with Enterococcus faecalis it was 16 µM (≈ 17.3 µg/mL).

For the compound `CCCCCCCCCC(=O)N[C@@H](CCCCN)C(=O)N[C@@H](CCCCN)C(=O)N[C@@H](Cc1c[nH]c2ccccc12)C(=O)N[C@@H](Cc1c[nH]c2ccccc12)C(N)=O` (Decanoyl-KKWW-NH2), the MIC in test [1] is 16 µM (≈ 12.8 µg/mL); with Escherichia coli, 16 µM (≈ 12.8 µg/mL); in the test with Pseudomonas aeruginosa it was 8 µM (≈ 6.4 µg/mL); with Staphylococcus aureus, 16 µM (≈ 12.8 µg/mL); with Acinetobacter baumannii it was 32 µM (≈ 25.6 µg/mL); in the test with Klebsiella pneumoniae, 32 µM (≈ 25.6 µg/mL). In addition, the MIC came to 4 µM (≈ 3.2 µg/mL) with Bacillus subtilis and 32 µM (≈ 25.6 µg/mL) in the test with Enterococcus faecalis.

For `CCCCCC(=O)NCCCC[C@H](NC(=O)CCCCC)C(=O)N[C@@H](CCCCN)C(=O)N[C@@H](CCCCN)C(=O)N[C@@H](Cc1c[nH]c2ccccc12)C(=O)N[C@@H](Cc1c[nH]c2ccccc12)C(N)=O` (Hexanoyl-K(Hexanoyl)KKWW-NH2), the MIC stood at 128 µM (≈ 124 µg/mL) in test [1]; 128 µM (≈ 124 µg/mL) in the test with Escherichia coli; 64 µM (≈ 62.1 µg/mL) in the test with Pseudomonas aeruginosa; 128 µM (≈ 124 µg/mL) in the test with Staphylococcus aureus; 128 µM (≈ 124 µg/mL) in the test on Acinetobacter baumannii; 128 µM (≈ 124 µg/mL) with Klebsiella pneumoniae. The figures for the MIC in the test with Bacillus subtilis and in the test on Enterococcus faecalis were 64 µM (≈ 62.1 µg/mL) and 128 µM (≈ 124 µg/mL), respectively.

`CCCCCC(=O)N[C@@H](CCCCN)C(=O)N[C@@H](CCCCN)C(=O)N[C@@H](Cc1c[nH]c2ccccc12)C(=O)N[C@@H](Cc1c[nH]c2ccccc12)C(N)=O` (Hexanoyl-KKWW-NH2): the MIC (in test [1]; in the test on Escherichia coli; in the test with Pseudomonas aeruginosa; in the test with Staphylococcus aureus; in the test with Acinetobacter baumannii; in the test with Klebsiella pneumoniae) was 128 µM (≈ 95.2 µg/mL) throughout. Moreover, the MIC in the test on Bacillus subtilis and with Enterococcus faecalis was 128 µM (≈ 95.2 µg/mL) throughout.

For the compound `CCCCCCCCCCCC(=O)NCCCC[C@H](NC(=O)CCCCCCCCCCC)C(=O)N[C@@H](CCCCN)C(=O)N[C@@H](CCCCN)C(=O)N[C@@H](Cc1c[nH]c2ccccc12)C(=O)N[C@@H](Cc1c[nH]c2ccccc12)C(N)=O` (Lauroyl-K(Lauroyl)KKWW-NH2), the MIC (in test [1]; with Escherichia coli; with Pseudomonas aeruginosa; in the test on Staphylococcus aureus; in the test with Acinetobacter baumannii; in the test on Klebsiella pneumoniae) was 128 µM (≈ 146 µg/mL) throughout. For the same compound, the MIC with Bacillus subtilis and with Enterococcus faecalis was 128 µM (≈ 146 µg/mL) each time.

The values above are taken from ChEMBL document CHEMBL6114980, “Single or double lipid-modified ultra-short antimicrobial peptides for treating infections caused by resistant bacteria” (Eur J Med Chem, 2025).
